Test results reported in US20120270935A1, “FORMULATIONS” (priority 2009, published 2012).

What was measured:
P. acnes NCTC 737 [1] = assay: Minimum bactericidal concentration (MBC) assay; type: cell-based, Propionibacterium acnes; conditions: compound in DMSO; triplicate
Method: (§1) The first test micro-organism used was Propionibacterium acnes NCTC 737. This is a propionibacterial strain and is the type strain of the […]; it is fully susceptible to antibiotics.
(§2) The propionibacteria were cultured and maintained on Wilkins-Chalgren Anaerobe Medium (agar and broth) at pH 6.0; all cultures were incubated anaerobically at 37° C. for 72 hours.
(§3) This assay, normally carried out after an MIC assay, determines the minimum concentration of a compound that is lethal to the micro-organism being tested.
These samples were then individually sub-cultured on antibiotic-free agar medium, under the incubation conditions described above. Following incubation they were examined visually for microbial growth.
(§4) DDA assays, as described above, were carried out using as the test formulation the gel prepared in Example 2B above. Also tested was the Example 2B gel minus the Klucel™ thickener, which was also subjected to MIC and MBC assays. For the DDAs, which were performed in triplicate, 100 μl of the relevant formulation was loaded onto each disc, and zones of inhibition were recorded after 3 days' anaerobic incubation at 37° C. The MIC and MBC tests were performed in duplicate and the results recorded after 3 days and 7 days respectively, post-subculture onto drug-free medium.
The compounds copper (II) usnate (Just for Today Ltd), sodium usnate (Yick-Vic Chemicals) and usnic acid (Sigma-Aldrich) were tested against P. acnes NCTC 737, using MIC, MBC and DDA assays as described above. For copper usnate and usnic acid, supplemented DDA assays were also carried out. DMSO was used as the solvent for all three test compounds. For the DDAs, 200 μg of the relevant test compound was loaded onto each disc. The MIC and MBC assays were conducted in triplicate, as were the DDAs for copper usnate.

P. acnes NCTC 737 [2] = assay: Minimum inhibitory concentration (MIC) assay, broth microtitre; type: cell-based, Propionibacterium acnes; conditions: compound in DMSO; triplicate
Method: as §1, §2
This is a standard international method for quantitatively assessing the antimicrobial activity of a compound in a liquid medium. The method used a sterile 96-well microtitre plate, capable of holding about 200 μl of liquid per well. The wells contained liquid culture medium and ranges of decreasing concentrations of the relevant test compound in doubling dilutions (eg 1000, 500, 250, 125 . . . μg/ml, etc. down to 0.49 μg/ml). The culture medium was as described above.
The wells were inoculated with a liquid suspension of freshly grown micro-organism and incubated under the conditions described above. After incubation, the microtitre plate was examined visually (with the aid of a light box) for cloudiness in each well, which would indicate microbial growth. The MIC value was recorded as the lowest concentration of test compound required to inhibit microbial growth, ie the lowest concentration for which the liquid in the well remained clear.
The assays included both negative (culture medium with no micro-organisms) and positive (culture medium plus diluting solvent plus micro-organism) controls.
as §4, with “medium. […]” for “medium.”

S. aureus ATCC 29213 [3] = assay: MIC assay; type: cell-based, Staphylococcus aureus; conditions: Mueller-Hinton broth pH 7.0
Excerpt: (§5) (a) staphylococci. The Staphylococcus aureus strain used was ATCC 29213. S. aureus and other staphylococci are common causes of a wide range of skin, skin structure and wound infections; S. aureus is also known to exacerbate eczema. The ATCC 29213 strain is known to be susceptible to beta-lactam antibiotics such as methicillin. The Staphylococcus epidermidis strain used was NCTC 11047. Staph. epidermidis forms part of the resident flora of skin and is an opportunistic pathogen which can cause biofilms to grow for instance on plastic surgical implants such as catheters. Unless otherwise stated, the staphylococci were cultured and maintained on Mueller-Hinton Medium (agar and broth) at pH 7.2; cultures were incubated aerobically at 37° C. for 19-20 hours, at pH 7 (±0.2). (b) C. striatum NCTC 764. Corynebacterium striatum is closely related to organisms (aerobic diphtheroids of the genus Corynebacterium) that cause body odour. It was cultured and maintained on Mueller-Hinton medium (agar and broth). All cultures were incubated aerobically at 37° C. for 72 hours, at pH 7 (±0.2). (c) streptococci. The strains tested were S. mutans ATCC 25175 and S. pyogenes ATCC 12344. S. mutans is a Gram-positive, microaerophilic bacterium which plays a significant role in dental caries and in infective endocarditis. […]
(§6) This is a standard international method for quantitatively assessing the antimicrobial activity of a compound in a liquid medium. […]
(§7) The wells were inoculated with a liquid suspension of freshly grown micro-organism and incubated under the conditions described above. […] The MIC value was recorded as the lowest concentration of test compound required to inhibit microbial growth, ie the lowest concentration for which the liquid in the well remained clear. […]
(§8) Example 8 was repeated (except for the supplemented DDA assays), using S. aureus ATCC 29213 as the test organism. […] In the DDA assays, 200 μg is of each compound was loaded onto each disc: the culture medium was Mueller-Hinton agar at pH 7.0, and results were recorded after overnight incubation at 37° C. in air. […]

C. striatum NCTC 764 [4] = assay: MBC assay; type: cell-based, Corynebacterium striatum; conditions: triplicate
Excerpt: (§9) (a) staphylococci. The Staphylococcus aureus strain used was ATCC 29213. S. aureus and other staphylococci are common causes of a wide range of skin, skin structure and wound infections; S. aureus is also known to exacerbate eczema. The ATCC 29213 strain is known to be susceptible to beta-lactam antibiotics such as methicillin. The Staphylococcus epidermidis strain used was NCTC 11047. Staph. epidermidis forms part of the resident flora of skin and is an opportunistic pathogen which can cause biofilms to grow for instance on plastic surgical implants such as catheters. Unless otherwise stated, the staphylococci were cultured and maintained on Mueller-Hinton Medium (agar and broth) at pH 7.2; cultures were incubated aerobically at 37° C. for 19-20 hours, at pH 7 (±0.2). (b) C. striatum NCTC 764. Corynebacterium striatum is closely related to organisms (aerobic diphtheroids of the genus Corynebacterium) that cause body odour. It was cultured and maintained on Mueller-Hinton medium (agar and broth). All cultures were incubated aerobically at 37° C. for 72 hours, at pH 7 (±0.2). (c) streptococci. The strains tested were S. mutans ATCC 25175 and S. pyogenes ATCC 12344. S. mutans is a Gram-positive, microaerophilic bacterium which plays a significant role in dental caries and in infective endocarditis. Streptococcus pyogenes is associated with skin, soft tissue, burn and wound infections. S. mutans was cultured and maintained on Wilkins-Chalgren Anaerobe medium+1 g/L glucose (agar and broth); it was incubated in air at 37° C. for 48 hours, at pH 7 (±0.2) with 5% carbon dioxide. S. pyogenes was cultured and maintained on Mueller-Hinton medium (broth and agar) and was incubated under the same conditions as S. mutans.
as §3
These samples were then individually sub-cultured on antibiotic-free agar medium, under the incubation conditions described above. Following incubation they were examined visually for microbial growth. […]

C. striatum NCTC 764 [5] = assay: MIC assay; type: cell-based, Corynebacterium striatum; conditions: triplicate
Excerpt: as §9, with “S. pyogenes was cultured and maintained on Mueller-Hinton medium (broth and agar) and was incubated under the same conditions as S. mutans.” left out
as §6, §7

P. acnes NCTC 737 [6] = assay: Disc diffusion assay (DDA); type: cell-based, Propionibacterium acnes; conditions: 200 μg compound per disc; DMSO
Method: as §1, §2
This is an internationally recognised standard method for qualitatively assessing the antimicrobial activity of a compound.
A sterile paper disc was impregnated with a sample of the test compound in a suitable solvent and 30 minutes allowed for the solvents to evaporate (where possible). The disc was then placed on an agar plate onto which the test micro-organism had been inoculated. The plate was then incubated under the conditions described above, following which it was examined visually for signs of microbial growth. If the test compound had antimicrobial activity, a circular zone of no growth would be obtained around the disc. The diameter of this zone of “inhibition” was measured using a ProtoCOL™ automated zone sizer (Synbiosis, Cambridge, UK). In general, a greater diameter and/or area of the zone of inhibition indicates a greater antimicrobial activity in the relevant test compound, although other factors such as test compound mobility through the agar gel may also influence the result.
as §4, with “medium. […]” for “medium.”

S. aureus ATCC 29213 [7] = assay: MBC assay; type: cell-based, Staphylococcus aureus; conditions: Mueller-Hinton broth pH 7.0
Excerpt: as §9, with “mutans. […]” for “mutans.”
as §8

C. striatum NCTC 764 [8] = assay: Disc diffusion assay (DDA); type: cell-based, Corynebacterium striatum; conditions: 200 μg per disc; single plates
Excerpt: as §5, with “streptococci.” for “streptococci. The strains tested were S. mutans ATCC 25175 and S. pyogenes ATCC 12344. S. mutans is a Gram-positive, microaerophilic bacterium which plays a significant role in dental caries and in infective endocarditis.”
(§10) A sterile paper disc was impregnated with a sample of the test compound in a suitable solvent and 30 minutes allowed for the solvents to evaporate (where possible). […] The diameter of this zone of “inhibition” was measured using a ProtoCOL™ automated zone sizer (Synbiosis, Cambridge, UK). […]

S. aureus ATCC 29213 [9] = assay: Disc diffusion assay (DDA); type: cell-based, Staphylococcus aureus; conditions: 200 μg per disc; Mueller-Hinton agar pH 7.0; overnight at 37° C. in air
Excerpt: as §5, with “endocarditis. Streptococcus pyogenes is associated with skin, soft tissue, burn and wound infections.” for “endocarditis.”
as §10, §8

**Q.** How did the MBC (P. acnes NCTC 737 [1]) turn out when `CC(=O)C1=C([O-])C=C2Oc3c(C(C)=O)c(O)c(C)c(O)c3[C@]2(C)C1=O.[Na+]` [Sodium usnate, sodium usnate] was run?
**A.** 0.98 mg/L

**Q.** And the MIC (P. acnes NCTC 737 [2])?
**A.** 0.49 mg/L

**Q.** And the MIC (S. aureus ATCC 29213 [3])?
**A.** 7.8 mg/L

**Q.** And the MBC (C. striatum NCTC 764 [4])?
**A.** 125 mg/L

**Q.** And the MIC (C. striatum NCTC 764 [5])?
**A.** 3.9 mg/L

**Q.** And the “DDA zone diameter, unsupplemented medium” value (P. acnes NCTC 737 [6])?
**A.** 57.9 mm

**Q.** What about the MBC (S. aureus ATCC 29213 [7]) of the same molecule?
**A.** 250 mg/L

**Q.** And the DDA zone diameter (C. striatum NCTC 764 [8])?
**A.** 20.0 mm

**Q.** And the DDA zone diameter (S. aureus ATCC 29213 [9])?
**A.** 15.0 mm
